Test results as given in patent publication US9670227B2, “Thienopyrimidine derivatives, a process for their preparation and pharmaceutical compositions containing them” (LES LABORATOIRES SERVIER, priority 2013, dated 2017).

Columns and labels:
[1] = test system: H929 multiple myeloma tumour line; assay: In vitro cytotoxicity, Microculture Tetrazolium Assay; type: cell-based; conditions: Homo sapiens, NCI-H929, 48 h, H929 cells, 48 hours exposure, MTT; read-out: IC50 (μM) MTT H929
Experimental: The cytotoxicity studies were carried out on the H929 multiple myeloma tumour line.
The cells are distributed onto microplates and exposed to the test compounds for 48 hours.

[2] = target: Mcl-1 protein (UniProtKB primary accession number: Q07820) (Homo sapiens, UniProt Q07820); assay: Inhibition of Mcl-1 by fluorescence polarisation, Method 1; type: binding; conditions: fluorescence polarisation; Method 1, or Method 2; read-out: IC50 (M) Mcl-1 FP
Sequence of Mcl-1 protein (Q07820 whole entry): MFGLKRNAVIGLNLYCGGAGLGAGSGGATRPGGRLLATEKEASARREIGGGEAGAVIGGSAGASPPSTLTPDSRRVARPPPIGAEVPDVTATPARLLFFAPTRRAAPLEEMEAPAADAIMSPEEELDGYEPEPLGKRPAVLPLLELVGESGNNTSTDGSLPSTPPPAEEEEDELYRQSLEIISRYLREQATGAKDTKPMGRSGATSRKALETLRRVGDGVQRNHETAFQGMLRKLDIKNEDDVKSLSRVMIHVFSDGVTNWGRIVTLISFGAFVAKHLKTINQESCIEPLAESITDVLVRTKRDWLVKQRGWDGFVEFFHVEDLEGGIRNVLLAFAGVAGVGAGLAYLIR
Procedure, shortened: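 Binding was measured as fluorescence polarisation of a fluorescein-labelled ligand (1 nM) displaced from Mcl-1 (5 nM), both final. Compounds ran as 11-point series with final DMSO at 5%.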

SMILES | IC50 [1] | IC50 [2]
CCn1nccc1COc1ccccc1CC(Oc1ncnc2sc(-c3ccc(F)cc3)c(-c3cnc(OCCN4CCN(C)CC4)c(Cl)c3C)c12)C(=O)O [Example 652, (2R)-2-{[(5Ra)-5-{5-chloro-4-methyl-6-[2-(4-methylpiperazin-1-yl)ethoxy]pyridin-3-yl}-6-(4-fluorophenyl)thieno[2,3-d]pyrimidin-4-yl]oxy}-3-{2-[(1-ethyl-1H-pyrazol-5-yl)methoxy]phenyl}propanoic acid] | 0.059 µM | 4.7e-09 M
COCC#Cc1ccccc1CC(Oc1ncnc2sc(-c3ccc(F)cc3)c(-c3ccc(OCCN4CCN(C)CC4)c(Cl)c3C)c12)C(=O)O [Example 656, (2R)-2-{[(5Sa)-5-{3-chloro-2-methyl-4-[2-(4-methylpiperazin-1-yl)ethoxy]phenyl}-6-(4-fluorophenyl)thieno[2,3-d]pyrimidin-4-yl]oxy}-3-[2-(3-methoxyprop-1-yn-1-yl)phenyl]propanoic acid] | 0.523 µM | 6.1e-08 M
Cc1c(-c2c(-c3ccco3)sc3ncnc(OC(Cc4ccccc4OCc4ccnn4C)C(=O)O)c23)ccc(OCCN(C)C)c1Cl [Example 668, (2R)-2-{[(5Sa)-5-{3-chloro-4-[2-(dimethylamino)ethoxy]-2-methylphenyl}-6-(furan-2-yl)thieno[2,3-d]pyrimidin-4-yl]oxy}-3-{2-[(1-methyl-1H-pyrazol-5-yl)methoxy]phenyl}propanoic acid] | 0.13 µM | 1.1e-08 M
CCN1CCN(CCOc2ccc(-c3c(-c4ccco4)sc4ncnc(OC(Cc5ccccc5OCCOC)C(=O)O)c34)c(C)c2Cl)CC1 [Example 669, (2R)-2-{[(5Sa)-5-{3-chloro-4-[2-(4-ethylpiperazin-1-yl)ethoxy]-2-methylphenyl}-6-(furan-2-yl)thieno[2,3-d]pyrimidin-4-yl]oxy}-3-[2-(2-methoxyethoxy)phenyl]propanoic acid] | 0.108 µM | 4.9e-09 M
CCN1CCN(CCOc2ccc(-c3c(-c4ccco4)sc4ncnc(OC(Cc5ccccc5OCc5ccnc(OC)n5)C(=O)O)c34)c(C)c2Cl)CC1 [Example 670, (2R)-2-{[(5Sa)-5-{3-chloro-4-[2-(4-ethylpiperazin-1-yl)ethoxy]-2-methylphenyl}-6-(furan-2-yl)thieno[2,3-d]pyrimidin-4-yl]oxy}-3-{2-[(2-methoxypyrimidin-4-yl)methoxy]phenyl}propanoic acid] | 0.027 µM | 3.2e-09 M
COCCOc1ccccc1CC(Oc1ncnc2sc(-c3ccco3)c(-c3ccc(OCCN4CCN(C(C)C)CC4)c(Cl)c3C)c12)C(=O)O [Example 671, (2R)-2-{[(5Sa)-5-(3-chloro-2-methyl-4-{2-[4-(propan-2-yl)piperazin-1-yl]ethoxy}phenyl)-6-(furan-2-yl)thieno[2,3-d]pyrimidin-4-yl]oxy}-3-[2-(2-methoxyethoxy)phenyl]propanoic acid] | 0.107 µM | 6.9e-09 M
COc1nccc(COc2ccccc2CC(Oc2ncnc3sc(-c4ccco4)c(-c4ccc(OCCN5CCN(C(C)C)CC5)c(Cl)c4C)c23)C(=O)O)n1 [Example 672, (2R)-2-{[(5Sa)-5-(3-chloro-2-methyl-4-{2-[4-(propan-2-yl)piperazin-1-yl]ethoxy}phenyl)-6-(furan-2-yl)thieno[2,3-d]pyrimidin-4-yl]oxy}-3-{2-[(2-methoxypyrimidin-4-yl)methoxy]phenyl}propanoic acid] | 0.019 µM | 4.3e-09 M
Cc1c(OCCN2CCN(C)CC2)ccc(-c2c(-c3ccco3)sc3ncnc(OC(Cc4ccccc4OCC(F)(F)F)C(=O)O)c23)c1C [Example 673, (2R)-2-[(5Sa)-5-[2,3-dimethyl-4-[2-(4-methylpiperazin-1-yl)ethoxy]phenyl]-6-(2-furyl)thieno[2,3-d]pyrimidin-4-yl]oxy-3-[2-(2,2,2-trifluoroethoxy)phenyl]propanoic acid] | 0.576 µM | 1.1e-08 M
CC#Cc1sc2ncnc(OC(Cc3ccccc3OC)C(=O)O)c2c1-c1ccc(OCCN2CCNCC2)c(Cl)c1C [Example 684, (2R)-2-{[(5Sa)-5-{3-chloro-2-methyl-4-[2-(piperazin-1-yl)ethoxy]phenyl}-6-(prop-1-yn-1-yl)thieno[2,3-d]pyrimidin-4-yl]oxy}-3-(2-methoxyphenyl)propanoic acid] | 2.23 µM | 1.9e-08 M
CC#Cc1sc2ncnc(OC(Cc3ccccc3OC)C(=O)O)c2c1-c1ccc(OCCN2CCN(C)CC2)c(F)c1C [Example 687, (2R)-2-{[(5Sa)-5-{3-fluoro-2-methyl-4-[2-(4-methylpiperazin-1-yl)ethoxy]phenyl}-6-(prop-1-yn-1-yl)thieno[2,3-d]pyrimidin-4-yl]oxy}-3-(2-methoxyphenyl)propanoic acid] | 3.66 µM | 2.9e-08 M
COCOc1cc(F)ccc1CC(Oc1ncnc2sc(-c3ccc(F)o3)c(-c3ccc(OCCN4CCN(C)CC4)c(Cl)c3C)c12)C(=O)O [Example 690, (2R)-2-{[(5Sa)-5-{3-chloro-2-methyl-4-[2-(4-methylpiperazin-1-yl)ethoxy]phenyl}-6-(5-fluorofuran-2-yl)thieno[2,3-d]pyrimidin-4-yl]oxy}-3-[4-fluoro-2-(methoxymethoxy)phenyl]propanoic acid] | 0.178 µM | 2.3e-08 M
Cc1c(-c2c(-c3ccc(F)o3)sc3ncnc(OC(Cc4ccc(F)cc4OCc4cnccn4)C(=O)O)c23)ccc(OCCN2CCN(C)CC2)c1Cl [Example 691, (2R)-2-{[(5Sa)-5-{3-chloro-2-methyl-4-[2-(4-methylpiperazin-1-yl)ethoxy]phenyl}-6-(5-fluorofuran-2-yl)thieno[2,3-d]pyrimidin-4-yl]oxy}-3-[4-fluoro-2-(pyrazin-2-ylmethoxy)phenyl]propanoic acid] | 0.037 µM | 9.6e-09 M
COc1cc(F)ccc1CC(Oc1ncnc2sc(-c3ccc(F)o3)c(-c3ccc(OCCN4CCN(C)CC4)c(Cl)c3C)c12)C(=O)O [Example 692, (2R)-2-{[(5Sa)-5-{3-chloro-2-methyl-4-[2-(4-methylpiperazin-1-yl)ethoxy]phenyl}-6-(5-fluorofuran-2-yl)thieno[2,3-d]pyrimidin-4-yl]oxy}-3-(4-fluoro-2-methoxyphenyl)propanoic acid] | 0.079 µM | 1e-08 M
Cc1c(-c2c(-c3ccc(F)nc3)sc3ncnc(OC(Cc4ccccc4OCc4ccnn4CC(F)(F)F)C(=O)O)c23)ccc(OCCN2CCN(C)CC2)c1Cl [Example 693, (2R)-2-{[(5Sa)-5-{3-chloro-2-methyl-4-[2-(4-methylpiperazin-1-yl)ethoxy]phenyl}-6-(6-fluoropyridin-3-yl)thieno[2,3-d]pyrimidin-4-yl]oxy}-3-(2-{[1-(2,2,2-trifluoroethyl)-1H-pyrazol-5-yl]methoxy}phenyl)propanoic acid] | 0.101 µM | 9.3e-10 M
COCCOc1ccc(-c2sc3ncnc(OC(Cc4ccccc4OCc4ccnn4CC(F)(F)F)C(=O)O)c3c2-c2ccc(OCCN3CCN(C)CC3)c(Cl)c2C)cn1 [Example 694, (2R)-2-[((5Sa)-5-{3-chloro-2-methyl-4-[2-(4-methylpiperazin-1-yl)ethoxy]phenyl}-6-[6-(2-methoxyethoxy)pyridin-3-yl]thieno[2,3-d]pyrimidin-4-yl)oxy]-3-(2-{[1-(2,2,2-trifluoroethyl)-1H-pyrazol-5-yl]methoxy}phenyl)propanoic acid] | 0.183 µM | 6.4e-09 M
